From patent US20210386812A1, “DEVELOPMENT OF HEALTH FOOD SUPPLEMENTS AND ANTIOXIDANTS FOR CONTROLLING HYPERURICEMIA AND OXIDATIVE STRESS” (Baylor College of Medicine, priority 2018, published 2021)
Values joined by “and” are separate entries in the source; they are usually repeats but may differ in a detail not shown here. Equal values may be shown once. “Also recorded” adds a separate entry of the source. Read-outs that look alike come from different tables or passages of the source.

Experiments:
Xanthine oxidase (XO) [1] = target: T1, Xanthine oxidase (XO) (Homo sapiens, UniProt P47989); experiment: Xanthine oxidase (XO) inhibition assay in a cell-free system; conditions: for XO activity inhibition (in words): increasing concentrations
Experimental: All 72 herb extracts (100 g) are in the powder form. Each extract was dissolved in water or DMSO respectively with strong votex, at stock concentration of 50 mg/ml. The solution was kept at room temperature for 30 min before centrifugation at 14k rpm. The clear solution was used for assay of XO inhibitory activity. XO activity was determined using the method of continuous spectrophotometric rate measurements (60). The reaction mixture contained xanthine in 67 mM phosphate buffer (pH 7.4) and 20 nM XO with an activity of 5 uU/mL, with or without extract solution. After pre-incubating the extract (at 0-10 ul) with XO for 1 min at 25° C., 50 uM xanthine was added to initiate the formation of uric acid, and the increase of absorption of uric acid at 295 nm was monitored in a dynamic mode. Initial rate of XO activity was recorded. […] For initial screen of herb extracts, final concentration of each extract was 163 ug/ml. Percentage of inhibition is calculated: Percentage of inhibition=(1−test OD/blank OD)×100
XO inhibition assay for folic acid related molecules is similar to that for herb extracts. Folic acids were dissolved in DMSO. Dose-dependent of folic acids and photolysis effect were studied.
Furthermore, we performed a dose dependent XO inhibition assay for each of these 14 extracts (DMSO-soluble fractions). […] IC50 is an operational parameter defined as the concentration of inhibitor required for achieving 50% inhibition of the enzyme.
Folic acid and its two derivatives, dihydrofolic acid and tetrahydrofolic acid, were employed in the XO inhibition assay. When 20 nM XO was mixed with increasing concentrations of folic acid, dihydrofolic acid and tetrahydrofolic acid.
The initial rate of uric acid formation in the reaction system was recorded; and XO inhibition rate of each herb extract was calculated.
Furthermore, a dose dependent XO inhibition assay was performed for each of these 15 extracts. […] IC50 is an operational parameter defined as the concentration of inhibitor required for achieving 50% inhibition of the enzyme.

Xanthine oxidase (XO) [2] = target: T1, Xanthine oxidase (XO); experiment: XO inhibition combination assay of herb extract with folic acid or 5-MTHF, added separately without pre-mixing; conditions: read-out: XO activity inhibition
Experimental: All 14 traditional Chinese medicine herb extracts were tested. Folic acid (0.167 uM) and extract (13.3 ug/ml) were separately added into the XO reaction system without pre-mixing. XO activity was measured.
Fresh prepared 5-MTHF (3.3 uM) and herb extract (13.3 ug/ml) was added to XO reaction system separately, XO activity was recorded.
Eight herbal extracts were selected and tested. Folic acid (0.167 uM) and each extract at a defined concentration (ug/ml) were separately added into the XO reaction system without pre-mixing. XO activity was measured.
Based on the result of dose-dependent XO inhibition experiments for herb extracts and folic acid, a relatively small concentration of each extract (a total of 14 extracts) and folic acid were utilized for a combination assay.
Folic acid (0.167 uM) and extract (13.3 ug/ml) were separately added into the XO reaction system without pre-mixing. XO activity was measured.
The inventors also tested the combination of 5-MTHF with different traditional Chinese medicine herb extracts for their effect on XO activity in vitro (FIG. 10).
Based on the result of dose-dependent XO inhibition experiments for herb extracts and folic acid, a relatively small concentration of each of 8 herbal extracts and folic acid were selected for a combination assay. […] XO activity was measured (FIG. 13).

[3] = cited from earlier work
XO = conditions: in vitro; cited from earlier work
serum uric acid = experiment: Hypouricemic effect in allantoxanamide-treated mice; format: in vivo, C57BL/6 mice; conditions: Allantoxanamide 200 mg/kg i.p., at both 1.5 hours and 3 hours; Allopurinol 13.3 mg/kg, recipe 41.7 and 83.4 mg/kg
Experimental: Recipe includes Japanese Thistle Extract, Grape Seed Extract, Amla Fruit Extract, Pine Bark Extract, Chinese Mint Extract and Folic acid. Mice were Intraperitoneally (i.p.)-injected with uricase inhibitor allantoxanamide to induce hyperuricemia in mice. […] Blood was taken from facial vein at 1.5 hour and 3 hour after the treatment. Serum uric acid level was measured the next day with a phosphotunstate method. N=4 per group.
Mouse experiment design, method and results. […] Folic acid solution was prepared separately by dissolving 2.6 mg folic acid in 1 ml 0.1 m potassium phosphate buffer, then 6 ul of this FA solution was added to the 10 ml extract solution.
Adult C57BL/6 mice (about 20 g body weight) were used. Four groups of mice (n=4 per group) were assigned for different treatments or controls (Table 12). Intraperitoneal (i.p.) injection of uricase inhibitor allantoxanamide can effectively block the conversion of uric acid to 5-hydroxyisourate and thus cause a marked increase in serum uric acid levels in mice, providing a hyperuricemic animal model (34). […] Blood was taken from facial vein at 1.5 hours and 3 hours after the treatment. Serum uric acid level was measured with a phosphotunstate method.

T1 sequence (P47989 whole entry, species assumed): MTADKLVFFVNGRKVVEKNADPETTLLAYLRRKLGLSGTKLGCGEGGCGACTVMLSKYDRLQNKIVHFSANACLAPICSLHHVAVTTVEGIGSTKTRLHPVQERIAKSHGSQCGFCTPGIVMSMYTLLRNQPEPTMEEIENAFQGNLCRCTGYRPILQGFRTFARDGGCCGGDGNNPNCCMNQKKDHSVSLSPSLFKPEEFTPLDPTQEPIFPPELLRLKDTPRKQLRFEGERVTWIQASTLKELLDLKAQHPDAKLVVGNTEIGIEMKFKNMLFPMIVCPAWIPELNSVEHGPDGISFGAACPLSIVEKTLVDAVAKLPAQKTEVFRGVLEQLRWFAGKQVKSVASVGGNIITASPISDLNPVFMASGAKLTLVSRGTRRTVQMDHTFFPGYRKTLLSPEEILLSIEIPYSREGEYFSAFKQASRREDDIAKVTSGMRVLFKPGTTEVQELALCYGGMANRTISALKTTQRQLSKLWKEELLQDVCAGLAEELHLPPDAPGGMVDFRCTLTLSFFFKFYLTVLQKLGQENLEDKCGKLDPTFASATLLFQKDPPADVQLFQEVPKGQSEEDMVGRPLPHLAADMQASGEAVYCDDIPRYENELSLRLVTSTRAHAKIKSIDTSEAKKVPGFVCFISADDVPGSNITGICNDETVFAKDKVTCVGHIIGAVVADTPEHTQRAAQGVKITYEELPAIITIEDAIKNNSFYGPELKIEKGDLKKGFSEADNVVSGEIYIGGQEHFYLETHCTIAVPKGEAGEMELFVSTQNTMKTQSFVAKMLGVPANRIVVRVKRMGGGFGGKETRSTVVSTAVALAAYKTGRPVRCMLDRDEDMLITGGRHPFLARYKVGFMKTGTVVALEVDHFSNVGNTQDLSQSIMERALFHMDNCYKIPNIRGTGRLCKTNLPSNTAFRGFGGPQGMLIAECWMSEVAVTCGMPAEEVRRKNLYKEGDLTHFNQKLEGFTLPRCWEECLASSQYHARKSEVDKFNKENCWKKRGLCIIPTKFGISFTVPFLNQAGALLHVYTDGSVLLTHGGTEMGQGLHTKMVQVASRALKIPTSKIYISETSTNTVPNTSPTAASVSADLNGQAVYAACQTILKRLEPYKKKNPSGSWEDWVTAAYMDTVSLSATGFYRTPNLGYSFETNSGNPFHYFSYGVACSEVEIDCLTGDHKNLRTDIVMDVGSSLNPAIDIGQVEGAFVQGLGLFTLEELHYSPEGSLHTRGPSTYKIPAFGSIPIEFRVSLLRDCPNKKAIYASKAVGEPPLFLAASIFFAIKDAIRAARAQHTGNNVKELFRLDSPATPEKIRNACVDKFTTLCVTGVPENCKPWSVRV

XO activity inhibition (in words) (Xanthine oxidase (XO) [1]; 20 nM XO) | Compound | XO inhibitory potency relative to a comparator (in words) (Xanthine oxidase (XO) [1]; cell-free system) | XO inhibitory effect (literature) (XO) | also measured
significantly inhibited XO activity | Nc1nc2ncc(CNc3ccc(C(=O)N[C@@H](CCC(=O)O)C(=O)O)cc3)nc2c(=O)[nH]1 [folic acid] | stronger than Allopurinol and DHNB | – | inhibition at 0.167 µM (Xanthine oxidase (XO) [2]): 16.5%; IC50 (Xanthine oxidase (XO) [1]): 0.75 µM
– | Cc1nc(-c2ccc(OCC(C)C)c(C#N)c2)sc1C(=O)O [febuxostat] | – | – | Patients with transaminase elevations greater than three times the upper limit of normal ([3]; in some studies): 2-3%; Patients with cutaneous adverse effects ([3]; initial clinical studies): about 2%
– | Nc1nc2ncc(C(=O)O)nc2c(=O)[nH]1 [pterin-6-carboxylic acid] | – | no XO inhibitory effect | –
– | Oc1ncnc2[nH]ncc12 [Allopurinol] | – | – | Serum uric acid levels (serum uric acid): significantly reduced serum uric acid levels
significantly inhibited XO activity | Nc1nc2c(c(=O)[nH]1)N=C(CNc1ccc(C(=O)N[C@@H](CCC(=O)O)C(=O)O)cc1)CN2 [dihydrofolic acid] | dihydrofolic acid>tetrahydrofolic>folic acid | stronger than that of folic acid | XO inhibitory potency relative to a comparator (in words) (Xanthine oxidase (XO) [1]; cell-free system, listed as Dihydrofolic acid): more potent than folic acid
significantly inhibited XO activity | Nc1nc2c(c(=O)[nH]1)NC(CNc1ccc(C(=O)N[C@@H](CCC(=O)O)C(=O)O)cc1)CN2 (stereo partly drawn) [tetrahydrofolic acid] | more potent than folic acid | stronger than that of folic acid | XO inhibitory potency relative to a comparator (in words) (Xanthine oxidase (XO) [1]; cell-free system, listed as tetrahydrofolic): dihydrofolic acid>tetrahydrofolic>folic acid
– | O=Cc1cc(O)c(O)c([N+](=O)[O-])c1 [DHNB, 3,4-Dihydroxy-5-nitrobenzaldehyde] | – | – | IC50 (Xanthine oxidase (XO) [1]): 3 µM
– | Nc1nc2ncc(C=O)nc2c(=O)[nH]1 [6-formyl pterin] | – | very potent XO inhibitor | –

Compound | XO activity inhibition (in words) (Xanthine oxidase (XO) [1]; 20 nM XO) | XO inhibitory potency relative to a comparator (in words) (Xanthine oxidase (XO) [1]; cell-free system) | XO inhibitory effect (literature) (XO) | also measured
CN1c2c(nc(N)[nH]c2=O)NCC1CNc1ccc(C(=O)N[C@@H](CCC(=O)O)C(=O)O)cc1 (stereo partly drawn) [Extract 5-MTHF, 5-methyl tetrahydrofolate] | effectively inhibited XO activity; also recorded: inhibited XO activities in a concentration-dependent manner | weaker than folic acid | – | IC50 (Xanthine oxidase (XO) [1]; read-out: IC50 for XO inhibition, 20 nM XO, cell-free system): ~35.6 µM and 35.6 µM
